Source: patent US10940188B2, “Compounds and methods for treatment and prevention of Flavivirus infection” (priority 2016, dated 2021)
Structures can show the parent of a compound that is named as a salt. Where two headings read alike, the source gives them in different places.

Experiments:
[1] = test system: ZIKV-induced caspase 3/7 activity in SNB-19 cells; assay: Caspase 3/7 activity assay, ZIKV-infected SNB-19 cells; type: cell-based; conditions: ZIKV-infected SNB-19 cells; for IC50: read-out: Caspase 3 (IC50, uM) SNB-19; for Emax: read-out: Caspase 3 (efficacy, %) SNB-19
Experimental: (§1) Caspase-Glo 3/7 assay kit (catalog number G8092; Promega, Madison, Wis.) was used to detect caspase 3/7 activity. Reagents were reconstituted as described in the protocol from the manufacturer. Polystyrene plates (384-well and 1536-well; regular tissue culture treated and PDL coated) were purchased from Greiner Bio-One (Monroe, N.C.). Cells were seeded in 384- and 1536-well assay plates and cultured at 37° C. with 5% CO2 for 16 hours. ZIKV solution was added to cells, followed by incubation at 37° C. with 5% CO2 for 6 hours. Caspase-Glo 3/7 was added to each well, unless otherwise specified, and incubated at room temperature for 30 minutes. The luminescence intensity of the assay plates was measured using a ViewLux plate reader (PerkinElmer). Data were normalized by using the cell-containing wells without ZIKV as a negative control (0% induction of caspase 3/7 activity) and wells containing ZIKV infected cells that induced caspase 3/7 activity were used as a positive control (100% induction of caspase 3/7 activity). […]
(§2) Caspase-Glo 3/7 assay kit (Promega) was used to detect caspase 3/7 activity. Reagents were reconstituted as described in the protocol from the manufacturer. Cells were seeded in 384- and 1536-well assay plates and cultured at 37° C. with 5% CO2 for 16 hours. ZIKV solution was added to cells, followed by incubation at 37° C. with 5% CO2 for 6 hours. Caspase-Glo 3/7 was added to each well at a 1:1 ratio, unless otherwise specified, and incubated at room temperature for 30 minutes. The luminescence intensity of the assay plates was measured using a ViewLux plate reader (PerkinElmer). Data was normalized by using the cell-containing wells without ZIKV as a negative (0% induction of caspase 3/7 activity) control and wells containing ZIKV infected cells that induced caspase 3/7 activity were used as a positive control (100% induction of caspase 3/7 activity). […]

[2] = test system: ZIKV-induced cell death in SNB-19 cells; assay: ATP cell viability assay for ZIKV-induced cell death, SNB-19 cells; type: cell-based, human; conditions: ZIKV-infected SNB-19 cells; for IC50: read-out: Cell viability (IC50, uM) SNB-19
Experimental: (§3) The reagent was reconstituted and prepared as described by the manufacturer. In order to measure the cell death caused by ZIKV infection, cells were cultured for 16 hours at 37° C. with 5% CO2 in assay plates, followed by the addition of ZIKV solution and incubation at 37° C. with 5% CO2 for 72 hours. ATPlite, the ATP monitoring reagent, was then added to the assay plates and they were incubated for 15 minutes. The resulting luminescence was measured using the ViewLux plate reader (Perkin Elmer). Data were normalized using the wells without cells as a control for 100% cell killing, and cell-containing wells without ZIKV infection were used as full cell viability (0% cell killing). […]
as §3, with “The ATPlite luminescence assay system assay kit (PerkinElmer) was used to determine cell viability. The reagent” for “The reagent”, “by the manufacture. In order” for “by the manufacturer. In order”, “followed by addition of” for “followed by the addition of”, “plates and incubated for” for “plates and they were incubated for”, “Elmer). Data was normalized using” for “Elmer). Data were normalized using”

[3] = test system: ZIKV-induced caspase 3/7 activity in hNPCs; assay: Caspase 3/7 activity assay, ZIKV-infected hNPCs; type: cell-based; conditions: ZIKV-infected hNPCs; for IC50: read-out: Caspase 3 (IC50, uM) NPCs; for Emax: read-out: Caspase 3 (efficacy, %) NPCs
Experimental: Caspase-Glo 3/7 assay kit (catalog number G8092; Promega, Madison, Wis.) was used to detect caspase 3/7 activity. Reagents were reconstituted as described in the protocol from the manufacturer. Polystyrene plates (384-well and 1536-well; regular tissue culture treated and PDL coated) were purchased from Greiner Bio-One (Monroe, N.C.). Cells were seeded in 384- and 1536-well assay plates and cultured at 37° C. with 5% CO2 for 16 hours. ZIKV solution was added to cells, followed by incubation at 37° C. with 5% CO2 for 6 hours. Caspase-Glo 3/7 was added to each well, unless otherwise specified, and incubated at room temperature for 30 minutes. The luminescence intensity of the assay plates was measured using a ViewLux plate reader (PerkinElmer). Data were normalized by using the cell-containing wells without ZIKV as a negative control (0% induction of caspase 3/7 activity) and wells containing ZIKV infected cells that induced caspase 3/7 activity were used as a positive control (100% induction of caspase 3/7 activity).
Human NPCs were seeded onto PDL coated 1536-well assay plates at 250 cells per 3 μl/well and incubated at 37° C. in 5% CO2 for 16 hours. Test compounds dissolved in DMSO were transferred to assay plates at a volume of 23 nl/well by an automated pintool workstation (Wako Automation, San Diego, Calif.). Compounds were incubated with cells for 30 minutes at 37° C. in 5% CO2, immediately followed by the addition of 2 μl/well of ZIKV. Incubation time of compound-treated cells with ZIKV varied based on assay format. Experiments measuring virus-induced caspase 3/7 activity required a 6 hour incubation of ZIKV in the presence compounds at 37° C. in 5% CO2. Following this incubation, 3.5 μl/well of caspase 3/7 reagent mixture was added to assay plates. The plates were incubated for 30 minutes at room temperature, and the resultant luminescence signal was measured using a ViewLux plate reader (Perkin Elmer). Experiments measuring virus-induced cell death required a 72-hour incubation of ZIKV in the presence of compounds at 37° C. in 5% CO2. Following this incubation, 3.5 μl/well of ATP content detection reagent was added to assay plates, incubated for 30 minutes at the room temperature, and the resultant luminescence signal was measured in a ViewLux plate reader.
Caspase-Glo 3/7 assay kit (Promega) was used to detect caspase 3/7 activity. Reagents were reconstituted as described in the protocol from the manufacturer. Cells were seeded in 384- and 1536-well assay plates and cultured at 37° C. with 5% CO2 for 16 hours. ZIKV solution was added to cells, followed by incubation at 37° C. with 5% CO2 for 6 hours. Caspase-Glo 3/7 was added to each well at a 1:1 ratio, unless otherwise specified, and incubated at room temperature for 30 minutes. The luminescence intensity of the assay plates was measured using a ViewLux plate reader (PerkinElmer). Data was normalized by using the cell-containing wells without ZIKV as a negative (0% induction of caspase 3/7 activity) control and wells containing ZIKV infected cells that induced caspase 3/7 activity were used as a positive control (100% induction of caspase 3/7 activity).
Human NPCs were seeded onto PDL coated 1536-well assay plates at 250 cells per 3 μl/well and incubated at 37° C. in 5% CO2 for 16 hours. Test compounds dissolved in DMSO were transferred to assay plates at a volume of 23 nl/well by an automated pintool workstation (Wako Automation, San Diego, Calif.). Compounds were incubated with cells for 30 minutes at 37° C. in 5% CO2, immediately followed by the addition of 2 μl/well of ZIKV. Incubation time of compound-treated cells with ZIKV varied based on assay format. Experiments measuring virus induced caspase 3/7 activity required a 6 hour incubation of ZIKV in the presence compounds at 37° C. in 5% CO2. […]

[4] = test system: ZIKV-induced caspase 3/7 activity in human astrocytes; assay: Caspase 3/7 activity assay, ZIKV-infected human astrocytes; type: cell-based; conditions: ZIKV-infected human astrocytes; for IC50: read-out: Caspase 3 (IC50, uM) Astrocyte; for Emax: read-out: Caspase 3 (efficacy, %) Astrocyte
Experimental: as §1, §2

[5] = test system: ZIKV-induced cell death in human astrocytes; assay: ATP cell viability assay for ZIKV-induced cell death, human astrocytes; type: cell-based; conditions: ZIKV-infected human astrocytes; for IC50: read-out: Cell viability (IC50, uM) Astrocyte

Row | IC50 ([1]; Homo sapiens) | IC50 ([3]; Homo sapiens) | IC50 ([4]; Astrocyte) | SMILES | Caspase 3 (efficacy, %) SNB-19 [1] | Cell viability (efficacy, %) SNB-19 [2] | IC50 [2] | Caspase 3 (efficacy, %) NPCs [3] | Caspase 3 (efficacy, %) Astrocyte [4] | IC50 [4] | Cell viability (efficacy, %) Astrocyte [5] | Emax ([1]; Homo sapiens) | IC50 ([2]; Homo sapiens) | Emax ([3]; Homo sapiens) | Emax ([4]; Astrocyte) | IC50 [1] | IC50 [3] | IC50 ([5]; Astrocyte) | IC50 [5]
1 | – | – | – | CN(C)c1ccc(N=NS(=O)(=O)[O-])cc1.[Na+] [Fenaminosulf] | 0.0% | 36.7% | 15.8 µM | 0.0% | 58.5% | 35.5 µM | 0.0% | – | – | – | – | – | – | – | –
2 | 2.91 µM | 3.88 µM | 2.31 µM | Cc1nc(-c2ccc(OCC(C)C)c(C#N)c2)sc1C(=O)O [Febuxostat] | – | 68.4% | – | – | – | – | 0.0% | 104% | 3.66 µM | 83.2% | 84.8% | – | – | – | –
3 | – | – | – | COc1cccc(NC(=O)/C=C/c2ccc(Cl)cc2)c1 [SB-366791] | 93.3% | 0.0% | – | 89.9% | 93.9% | 4.11 µM | 0.0% | – | – | – | – | 3.66 µM | 2.91 µM | – | –
4 | 20.6 µM | 15.5 µM | 19.5 µM | CC(/C=C1\SC(=S)N(CC(=O)O)C1=O)=C\c1ccccc1 [Epalrestat] | – | 82.1% | – | – | – | – | 0.0% | 79.2% | 5.48 µM | 72.1% | 93.3% | – | – | – | –
5 | – | – | – | Nc1ccc(-c2ccc3ccccc3n2)cc1 [BF-170 hydrochloride] | 104% | 0.0% | – | 92.7% | 118% | 4.61 µM | 65.8% | – | – | – | – | 6.15 µM | 4.11 µM | – | 6.15 µM
6 | 1.03 µM | 0.92 µM | 1.3 µM | C/C(O)=C(\C#N)C(=O)Nc1ccc(C(F)(F)F)cc1 [Teriflunomide] | – | 0.0% | – | – | – | – | 0.0% | 93.1% | – | 94.5% | 86.9% | – | – | – | –
7 | 15.5 µM | 15.5 µM | 17.3 µM | O=C1C[C@@H](c2ccc(O)cc2)Oc2cc(O)cc(O)c21 [Naringenin] | – | 0.0% | – | – | – | – | 0.0% | 66.3% | – | 63.4% | 65.2% | – | – | – | –
8 | 13.8 µM | 9.75 µM | 9.2 µM | O=C(O)[C@@H](c1ccc(OCc2ccc3ccccc3n2)cc1)C1CCCC1 [Veliflapon] | – | 0.0% | – | – | – | – | 0.0% | 70% | – | 74.3% | 65.9% | – | – | – | –

Row | SMILES | IC50 ([1]; Homo sapiens) | IC50 ([3]; Homo sapiens) | IC50 ([4]; Astrocyte) | Caspase 3 (efficacy, %) SNB-19 [1] | Cell viability (efficacy, %) SNB-19 [2] | IC50 [2] | Caspase 3 (efficacy, %) NPCs [3] | Caspase 3 (efficacy, %) Astrocyte [4] | IC50 [4] | Cell viability (efficacy, %) Astrocyte [5] | Emax ([1]; Homo sapiens) | IC50 ([2]; Homo sapiens) | Emax ([3]; Homo sapiens) | Emax ([4]; Astrocyte) | IC50 [1] | IC50 [3] | IC50 ([5]; Astrocyte) | IC50 [5]
9 | O=c1c2ccccc2nc2n1CCc1c-2[nH]c2ccccc12 [Rutaecarpine] | 5.18 µM | 4.61 µM | 4.89 µM | – | 0.0% | – | – | – | – | 0.0% | 86.4% | – | 87.5% | 89.5% | – | – | – | –
10 | CC(=O)Oc1ccccc1C(=O)Nc1ncc([N+](=O)[O-])s1 [Nitazoxanide] | 2.24 µM | 1.26 µM | 2 µM | – | 62.1% | – | – | – | – | 53.6% | 86.4% | 23.7 µM | 82.3% | 90.3% | – | – | 31.6 µM | –
11 | O=c1c2ccccc2[se]n1-c1ccccc1 [Ebselen] | 17.3 µM | 8.2 µM | 8.2 µM | – | 0.0% | – | – | – | – | 0.0% | 117% | – | 109% | 93.8% | – | – | – | –
12 | CN1CC[C@@]2(C)c3cc(OC(=O)Nc4ccccc4)ccc3N(C)[C@@H]12 [Phenserine] | 19.5 µM | 25.9 µM | 25.9 µM | – | 0.0% | – | – | – | – | 0.0% | 38.4% | – | 51.5% | 47.4% | – | – | – | –
